From ChEMBL document CHEMBL2046291, “Potent inhibition of norovirus 3CL protease by peptidyl α-ketoamides and α-ketoheterocycles” (Bioorg Med Chem Lett, 2012) come the findings set out here.

In general, pIC50 refers to the negative decadic logarithm of the IC50, by convention in mol/L.

pEC50, pIC50: −log10 of the molar value.

Test [1] deals with Norovirus. Put plainly: Antiviral activity against Norovirus infected in human HG23 cells. Format: functional. As to conditions: read-out: ED50 (the source's name).
Test [2] is described as follows: Inhibition of Norovirus recombinant 3CL protease using Edans-EPDFHLQGPEDLAK-Dabcyl as substrate for 30 mins by fluorometry.

Turning to `CC(C)C[C@H](NC(=O)OCc1ccccc1)C(=O)N[C@@H](CC1CCNC1=O)C(=O)c1nccs1` (stereo not given in full), the pEC50 in test [1] is 5.38. Further, the negative logarithm of the IC50 (pIC50) in test [2] was 5.06.

Turning to `CC(C)C[C@H](NC(=O)OCc1ccccc1)C(=O)N[C@@H](CC1CCNC1=O)C(O)C(=O)NC1CC1` (stereo not given in full), the pEC50 in test [1] was under 5.00. For the same molecule, in test [2], the pIC50 was under 4.30.

As to `CC(C)C[C@H](NC(=O)OCc1ccccc1)C(=O)N[C@@H](CC1CCNC1=O)C(=O)C(=O)NC1CCCCC1` (stereo not given in full), the pEC50 in test [1] is 5.92. The negative logarithm of the IC50 (pIC50) in test [2] was 5.46.

For the molecule `CC(C)C[C@H](NC(=O)OCc1ccccc1)C(=O)N[C@@H](CC1CCNC1=O)C(O)c1nccs1` (stereo not given in full), in test [1], the pEC50 is 5.37. Also, the negative logarithm of the IC50 (pIC50) in test [2] is 4.91.

On to `CC(C)NC(=O)C(=O)[C@H](CC1CCNC1=O)NC(=O)[C@H](Cc1ccccc1)NC(=O)OCc1ccccc1` (stereo not given in full), for which the pEC50 in test [1] is 5.38. In test [2], the pIC50 is 4.67.

On to `CC(C)C[C@H](NC(=O)OCc1ccccc1)C(=O)N[C@@H](CC1CCNC1=O)C(O)c1ncco1` (stereo not given in full), for which, in test [1], the pEC50 was under 4.70. For the same molecule, in test [2], the negative-log IC50 (pIC50) is under 4.30.

`CCCCNC(=O)C(O)[C@H](CC1CCNC1=O)NC(=O)[C@H](CC(C)C)NC(=O)OCc1ccccc1` (stereo not given in full): the pEC50 in test [1] was under 4.70. For the same molecule, the pIC50 in test [2] is under 4.30.

`CC(C)C[C@H](NC(=O)OCc1ccccc1)C(=O)N[C@@H](CC1CCNC1=O)C(=O)C(=O)NC(C)C` (stereo not given in full): the pEC50 in test [1] is 5.55. The pIC50 in test [2] was 5.28.

Take `CC(C)C[C@H](NC(=O)OCc1ccccc1)C(=O)N[C@@H](CC1CCNC1=O)C(=O)C(=O)NCc1ccccc1` (stereo not given in full): in test [1], the pEC50 is 5.74. In test [2], the negative logarithm of the IC50 (pIC50) was 5.15.

Take `CC(C)C[C@H](NC(=O)OCc1ccccc1)C(=O)N[C@@H](CC1CCNC1=O)C(=O)C(=O)NC(C)(C)C` (stereo not given in full): the pEC50 in test [1] was 5.96. Also, the pIC50 in test [2] is 5.55.

`CC(C)C[C@H](NC(=O)OCc1ccccc1)C(=O)N[C@@H](CC1CCNC1=O)C(O)C(=O)NCc1ccccc1` (stereo not given in full): in test [1], the pEC50 is under 4.70. In addition, the negative-log IC50 (pIC50) in test [2] is under 4.30.

For `CCOC(=O)CNC(=O)C(=O)[C@H](CC1CCNC1=O)NC(=O)[C@H](CC(C)C)NC(=O)OCc1ccccc1` (stereo not given in full), the pEC50 in test [1] was 6.10. For the same molecule, in test [2], the negative-log IC50 (pIC50) is 5.68.

For `CC(C)NC(=O)C(O)[C@H](CC1CCNC1=O)NC(=O)[C@H](Cc1ccccc1)NC(=O)OCc1ccccc1` (stereo not given in full), the pEC50 in test [1] was 5.20. For the same molecule, the negative-log IC50 (pIC50) in test [2] is 4.64.

`CCOC(=O)CNC(=O)C(O)[C@H](CC1CCNC1=O)NC(=O)[C@H](CC(C)C)NC(=O)OCc1ccccc1` (stereo not given in full): the pEC50 in test [1] was under 5.00. In addition, in test [2], the negative-log IC50 (pIC50) is under 4.30.

With `CC(C)C[C@H](NC(=O)OCc1ccccc1)C(=O)N[C@@H](CC1CCNC1=O)C(O)C(=O)NC(C)C` (stereo not given in full), the pEC50 in test [1] was 5.39. The pIC50 in test [2] was 4.34.

As for `CC(C)C[C@H](NC(=O)OCc1ccccc1)C(=O)N[C@@H](CC1CCNC1=O)C(=O)c1ncco1` (stereo not given in full), the pEC50 in test [1] is 6.05. In addition, in test [2], the pIC50 was 5.64.

For `CC(C)C[C@H](NC(=O)OCc1ccccc1)C(=O)N[C@@H](CC1CCNC1=O)C(O)C(=O)NC(C)(C)C` (stereo not given in full), the pEC50 in test [1] was under 4.70. For the same molecule, in test [2], the negative-log IC50 (pIC50) is under 4.30.

For `CCCCNC(=O)C(=O)[C@H](CC1CCNC1=O)NC(=O)[C@H](CC(C)C)NC(=O)OCc1ccccc1` (stereo not given in full), in test [1], the pEC50 is 5.89. Further, in test [2], the pIC50 is 5.39.

As to `CC(C)C[C@H](NC(=O)OCc1ccccc1)C(=O)N[C@@H](CC1CCNC1=O)C(=O)C(=O)NC1CC1` (stereo not given in full), the pEC50 in test [1] is 5.96. For the same molecule, in test [2], the negative logarithm of the IC50 (pIC50) was 5.47.

On to `CC(C)C[C@H](NC(=O)OCc1ccccc1)C(=O)N[C@@H](CC1CCNC1=O)C(O)C(=O)NC1CCCCC1` (stereo not given in full), for which the pEC50 in test [1] was under 4.70. Besides, the negative logarithm of the IC50 (pIC50) in test [2] is under 4.30.
